In patent publication US20250368649A1, “TETRAHYDROPYRIDOPYRIMIDINE PAN-KRAS INHIBITORS” (Mirati Therapeutics, Inc., priority 2022, published 2025):

What was measured:
KRas G12V = KRas G12V (Homo sapiens, UniProt P01116, G12V); experiment: biochemical; details: Binding to KRas (IC50 nM) G12V, TR-FRET displacement, KRas G12V
KRas WT = KRas WT (Homo sapiens, UniProt P01116); experiment: KRas binding assay (TR-FRET displacement), KRas WT; details: TR-FRET displacement
KRas G12D = KRas G12D (Homo sapiens, UniProt P01116, G12D); experiment: biochemical; details: Binding to KRas (IC50 nM) G12D, TR-FRET displacement, KRas G12D
KRas G12S = KRas G12S (Homo sapiens, UniProt P01116, G12S); format: binding; details: TR-FRET displacement, read-out: Binding to KRas (IC50 nM) G12S
KRas Q61H = KRas Q61H (Homo sapiens, UniProt P01116, Q61H); experiment: KRas binding assay (TR-FRET displacement), KRas Q61H; details: TR-FRET displacement
KRas G13D = KRas G13D (Homo sapiens, UniProt P01116, G13D); format: binding; details: TR-FRET displacement, read-out: Binding to KRas (IC50 nM) G13D
KRas G12C = KRas G12C (Homo sapiens, UniProt P01116, G12C); format: binding; details: TR-FRET displacement, read-out: Binding to KRas (IC50 nM) G12C
KRas G12A = KRas G12A (Homo sapiens, UniProt P01116, G12A); format: binding; details: TR-FRET displacement, read-out: Binding to KRas (IC50 nM) G12A
KRas G12R = KRas G12R (Homo sapiens, UniProt P01116, G12R); experiment: biochemical; details: Binding to KRas (IC50 nM) G12R, TR-FRET displacement, KRas G12R
Sequence of KRas G12R (P01116 1-169 isoform P01116-2 G12R): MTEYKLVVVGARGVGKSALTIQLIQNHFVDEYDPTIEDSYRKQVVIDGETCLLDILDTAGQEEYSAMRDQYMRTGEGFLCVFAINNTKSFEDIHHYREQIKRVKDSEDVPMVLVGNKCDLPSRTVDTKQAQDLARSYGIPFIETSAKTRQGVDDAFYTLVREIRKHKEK

Sequence of KRas WT (P01116 1-169 isoform P01116-2): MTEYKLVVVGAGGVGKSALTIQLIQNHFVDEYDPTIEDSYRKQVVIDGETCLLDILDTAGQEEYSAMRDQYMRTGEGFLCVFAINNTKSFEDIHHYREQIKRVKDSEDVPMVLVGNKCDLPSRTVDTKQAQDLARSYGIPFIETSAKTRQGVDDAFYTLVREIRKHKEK
Sequence of KRas Q61H (P01116 1-169 isoform P01116-2 Q61H): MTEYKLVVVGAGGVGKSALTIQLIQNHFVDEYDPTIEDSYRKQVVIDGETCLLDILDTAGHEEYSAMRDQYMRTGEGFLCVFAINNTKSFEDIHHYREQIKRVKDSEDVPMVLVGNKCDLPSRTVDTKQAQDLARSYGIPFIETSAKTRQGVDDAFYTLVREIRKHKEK
Sequence of KRas G12A (P01116 1-169 isoform P01116-2 G12A): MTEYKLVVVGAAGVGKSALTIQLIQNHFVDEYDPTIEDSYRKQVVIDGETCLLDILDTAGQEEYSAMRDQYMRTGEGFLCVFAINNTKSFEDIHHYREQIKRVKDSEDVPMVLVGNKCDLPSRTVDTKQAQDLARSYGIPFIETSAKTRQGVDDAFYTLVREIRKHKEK
Sequence of KRas G12V (P01116 1-169 isoform P01116-2 G12V): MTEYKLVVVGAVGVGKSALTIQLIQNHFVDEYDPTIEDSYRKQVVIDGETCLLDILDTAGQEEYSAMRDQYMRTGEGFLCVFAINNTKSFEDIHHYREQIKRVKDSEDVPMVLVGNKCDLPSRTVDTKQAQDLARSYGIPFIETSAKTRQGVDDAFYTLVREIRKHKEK
Sequence of KRas G12S (P01116 1-169 isoform P01116-2 G12S): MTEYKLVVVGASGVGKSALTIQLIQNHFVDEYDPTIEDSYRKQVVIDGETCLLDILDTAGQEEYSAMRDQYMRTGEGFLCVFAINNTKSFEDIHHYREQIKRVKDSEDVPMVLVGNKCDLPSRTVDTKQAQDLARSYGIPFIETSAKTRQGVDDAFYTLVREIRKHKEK
Sequence of KRas G13D (P01116 1-169 isoform P01116-2 G13D): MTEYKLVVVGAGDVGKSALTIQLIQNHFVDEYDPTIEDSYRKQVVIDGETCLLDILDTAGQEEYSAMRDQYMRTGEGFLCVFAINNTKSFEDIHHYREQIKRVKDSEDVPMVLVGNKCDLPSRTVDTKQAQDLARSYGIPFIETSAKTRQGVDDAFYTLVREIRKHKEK
Sequence of KRas G12C (P01116 1-169 isoform P01116-2 G12C): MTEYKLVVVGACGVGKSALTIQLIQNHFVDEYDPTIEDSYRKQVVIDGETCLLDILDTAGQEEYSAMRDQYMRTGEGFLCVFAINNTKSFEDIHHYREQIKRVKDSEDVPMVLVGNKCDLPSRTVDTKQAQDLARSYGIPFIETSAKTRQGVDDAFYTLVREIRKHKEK
Sequence of KRas G12D (P01116 1-169 isoform P01116-2 G12D): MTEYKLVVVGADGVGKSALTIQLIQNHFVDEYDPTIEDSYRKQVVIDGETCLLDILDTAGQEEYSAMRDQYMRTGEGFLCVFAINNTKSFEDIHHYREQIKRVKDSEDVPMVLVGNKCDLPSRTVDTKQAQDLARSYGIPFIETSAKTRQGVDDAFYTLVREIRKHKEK

| SMILES | IC50 (KRas G12V) | IC50 (KRas WT) | IC50 (KRas G12D) | IC50 (KRas G12S) | IC50 (KRas Q61H) | IC50 (KRas G13D) | IC50 (KRas G12C) | IC50 (KRas G12A) | IC50 (KRas G12R) |
| --- | --- | --- | --- | --- | --- | --- | --- | --- | --- |
| CCc1cccc2cccc(N3CCc4c(nc(OCC5(CN(C)C)CC5)nc4NCc4nc(C5CC5)n[nH]4)C3)c12 [Example 675, N-((3-cyclopropyl-1H-1,2,4-triazol-5-yl)methyl)-2-((1-((dimethylamino)methyl)cyclopropyl)methoxy)-7-(8-ethylnaphthalen-1-yl)-5,6,7,8-tetrahydropyrido[3,4-d]pyrimidin-4-amine] | 3240 nM | 16900 nM | 6300 nM | 16600 nM | 25300 nM | 15300 nM | 8480 nM | 17300 nM |  |
| CCc1cccc2cccc(N3CCc4c(nc(OCC5(CN(C)C)CC5)nc4NCc4cnc(C)nc4N)C3)c12 [Example 677, N-((4-amino-2-methylpyrimidin-5-yl)methyl)-2-((1-((dimethylamino)methyl)cyclopropyl)methoxy)-7-(8-ethylnaphthalen-1-yl)-5,6,7,8-tetrahydropyrido[3,4-d]pyrimidin-4-amine] | 4410 nM | 11000 nM | 2330 nM | 13600 nM | 14100 nM | 13900 nM | 6330 nM | 9110 nM |  |
| CCc1cccc2cccc(N3CCc4c(nc(OCC5(CN(C)C)CC5)nc4NCc4ccnn4CC(F)F)C3)c12 [Example 683, N-((1-(2,2-difluoroethyl)-1H-pyrazol-5-yl)methyl)-2-((1-((dimethylamino)methyl)cyclopropyl)methoxy)-7-(8-ethylnaphthalen-1-yl)-5,6,7,8-tetrahydropyrido[3,4-d]pyrimidin-4-amine] | 5850 nM | 10800 nM | 8310 nM | 8600 nM | 12100 nM | 16100 nM | 5450 nM | 8280 nM |  |
| CCc1cccc2cccc(N3CCc4c(nc(OCC5(CN(C)C)CC5)nc4N4CCCN(CC(F)(F)F)CC4)C3)c12 [Example 684, 1-(1-(((7-(8-ethylnaphthalen-1-yl)-4-(4-(2,2,2-trifluoroethyl)-1,4-diazepan-1-yl)-5,6,7,8-tetrahydropyrido[3,4-d]pyrimidin-2-yl)oxy)methyl)cyclopropyl)-N,N-dimethylmethanamine] | 11200 nM | 1880 nM | 41700 nM | 1960 nM | 2210 nM | 2220 nM | 1810 nM | 2640 nM | 11400 nM |
| CCc1cccc2cccc(N3CCc4c(nc(OCC5(CN(C)C)CC5)nc4N4CCC(n5cn[nH]c5=O)CC4)C3)c12 [Example 688, 4-(1-(2-((1-((dimethylamino)methyl)cyclopropyl)methoxy)-7-(8-ethylnaphthalen-1-yl)-5,6,7,8-tetrahydropyrido[3,4-d]pyrimidin-4-yl)piperidin-4-yl)-2,4-dihydro-3H-1,2,4-triazol-3-one] | 6430 nM | 14600 nM | 37400 nM | 17700 nM | 18100 nM | 14500 nM | 10000 nM | 9730 nM |  |
| CCc1cccc2cccc(N3CCc4c(nc(OCC5(CN(C)C)CC5)nc4NC4CN(c5nccn6nc(C)cc56)C4)C3)c12 [Example 699, 2-((1-((dimethylamino)methyl)cyclopropyl)methoxy)-7-(8-ethylnaphthalen-1-yl)-N-(1-(2-methylpyrazolo[1,5-a]pyrazin-4-yl)azetidin-3-yl)-5,6,7,8-tetrahydropyrido[3,4-d]pyrimidin-4-amine] | 5460 nM | 7340 nM | 6150 nM | 9980 nM | 8740 nM | 9980 nM | 4200 nM | 8450 nM |  |
| CCc1cccc2cccc(N3CCc4c(nc(OCC5(CN(C)C)CC5)nc4NC4CC(n5ccnn5)C4)C3)c12 (stereo not drawn) [Example 703, N-(3-(1H-1,2,3-triazol-1-yl)cyclobutyl)-2-((1-((dimethylamino)methyl)cyclopropyl)methoxy)-7-(8-ethylnaphthalen-1-yl)-5,6,7,8-tetrahydropyrido[3,4-d]pyrimidin-4-amine] | 4790 nM | 12400 nM | 10700 nM | 13500 nM | 15900 nM | 16100 nM | 9490 nM | 13500 nM |  |
| CCc1cccc2cccc(N3CCc4c(nc(OCC5(CN(C)C)CC5)nc4NCC4COCC4n4cc(C(N)=O)nn4)C3)c12 (stereo not drawn) [Example 705, 1-(4-(((2-((1-((dimethylamino)methyl)cyclopropyl)methoxy)-7-(8-ethylnaphthalen-1-yl)-5,6,7,8-tetrahydropyrido[3,4-d]pyrimidin-4-yl)amino)methyl)tetrahydrofuran-3-yl)-1H-1,2,3-triazole-4-carboxamide] | 8520 nM | 13300 nM | 3070 nM | 20500 nM | 15900 nM | 21800 nM | 10900 nM | 16500 nM |  |

Stronger by IC50 (KRas G12V), values ahead:

| IC50 (KRas G12V) | IC50 (KRas WT) | IC50 (KRas G12D) | IC50 (KRas G12S) | IC50 (KRas Q61H) | IC50 (KRas G13D) | IC50 (KRas G12C) | IC50 (KRas G12A) | IC50 (KRas G12R) | SMILES |
| --- | --- | --- | --- | --- | --- | --- | --- | --- | --- |
| 54 nM | 33 nM | 99 nM | 56 nM | 42 nM | 32 nM | 81 nM | 55 nM | 130 nM | CCc1cccc2cccc(N3CCc4c(nc(OCC56CCCN5CCC6)nc4N4CCC(O)CC(S(C)(=O)=O)C4)C3)c12 (single isomer, unassigned) [Example 479, 1-(7-(8-ethylnaphthalen-1-yl)-2-((tetrahydro-1H-pyrrolizin-7a(5H)-yl)methoxy)-5,6,7,8-tetrahydropyrido[3,4-d]pyrimidin-4-yl)-6-(methylsulfonyl)azepan-4-ol] |
| 1250 nM | 3490 nM | 1410 nM | 3700 nM | 3960 nM | 4050 nM | 2030 nM | 3970 nM |  | CCc1cccc2cccc(N3CCc4c(nc(OCC5(CN(C)C)CC5)nc4NC4CN(c5nncs5)C4)C3)c12 [Example 674, N-(1-(1,3,4-thiadiazol-2-yl)azetidin-3-yl)-2-((1-((dimethylamino)methyl)cyclopropyl)methoxy)-7-(8-ethylnaphthalen-1-yl)-5,6,7,8-tetrahydropyrido[3,4-d]pyrimidin-4-amine] |
| 1910 nM | 5010 nM | 4290 nM | 7090 nM | 6700 nM | 6220 nM | 3410 nM | 6300 nM |  | CCc1cccc2cccc(N3CCc4c(nc(OCC5(CN(C)C)CC5)nc4NC4CN(C(=O)NC)C4)C3)c12 [Example 676, 3-((2-((1-((dimethylamino)methyl)cyclopropyl)methoxy)-7-(8-ethylnaphthalen-1-yl)-5,6,7,8-tetrahydropyrido[3,4-d]pyrimidin-4-yl)amino)-N-methylazetidine-1-carboxamide] |
| 437 nM | 1930 nM | 131 nM | 946 nM | 4850 nM | 4480 nM | 651 nM | 2220 nM |  | CCc1cccc2cccc(N3CCc4c(nc(OCC5(CN(C)C)CC5)nc4N4CCCn5nc(CO)cc5C4)C3)c12 [Example 694, (5-(2-((1-((dimethylamino)methyl)cyclopropyl)methoxy)-7-(8-ethylnaphthalen-1-yl)-5,6,7,8-tetrahydropyrido[3,4-d]pyrimidin-4-yl)-5,6,7,8-tetrahydro-4H-pyrazolo[1,5-a][1,4]diazepin-2-yl)methanol] |
| 2030 nM | 5290 nM | 7730 nM | 5830 nM | 6070 nM | 6620 nM | 3620 nM | 6300 nM |  | CCc1cccc2cccc(N3CCc4c(nc(OCC5(CN(C)C)CC5)nc4NCc4ncc5c(n4)CCOC5)C3)c12 [Example 701, N-((7,8-dihydro-5H-pyrano[4,3-d]pyrimidin-2-yl)methyl)-2-((1-((dimethylamino)methyl)cyclopropyl)methoxy)-7-(8-ethylnaphthalen-1-yl)-5,6,7,8-tetrahydropyrido[3,4-d]pyrimidin-4-amine] |
| 2200 nM | 3310 nM | 7670 nM | 2820 nM | 3770 nM | 3330 nM | 1680 nM | 2810 nM |  | CCc1cccc2cccc(N3CCc4c(nc(OCC5(CN(C)C)CC5)nc4NCc4ncc(C#N)c(N)n4)C3)c12 [Example 706, 4-amino-2-(((2-((1-((dimethylamino)methyl)cyclopropyl)methoxy)-7-(8-ethylnaphthalen-1-yl)-5,6,7,8-tetrahydropyrido[3,4-d]pyrimidin-4-yl)amino)methyl)pyrimidine-5-carbonitrile] |
